Test results reported in PubChem BioAssay (NCI).
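1) Cells in 96-well plates. 2) Compound, 48 h, 5 concentrations. 3) Linear interpolation between surrounding doses. 4) Unreached endpoint = highest concentration. GI50 is the concentration that inhibits growth by half. TGI is the concentration that stops growth completely.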 Where a SMILES comes first, the peptide text is derived from it. The star is where a group is joined. Trt = c1ccc(C(c2ccccc2)(c2ccccc2)*)cc1; Cbz = O=C(OCc1ccccc1)*

Legend:
Experiment in all cases: NCI-60 cell line screen, 48 h
[1] = tested on: 786-0 renal
[2] = tested on: A549 NSCLC
[3] = tested on: DU-145 prostate
[4] = tested on: HL-60(TB) leukemia
[5] = tested on: OVCAR-4 ovarian
[6] = tested on: OVCAR-5 ovarian
[7] = tested on: OVCAR-8 ovarian
[8] = tested on: SR leukemia
[9] = tested on: SW-620 colon
[10] = tested on: UACC-257 melanoma

Row | SMILES | GI50 [1] | TGI [1] | GI50 [2] | TGI [2] | GI50 [3] | TGI [3] | GI50 [4] | TGI [4] | GI50 [5] | TGI [5] | GI50 [6] | TGI [6] | GI50 [7] | TGI [7] | GI50 [8] | TGI [8] | GI50 [9] | TGI [9] | GI50 [10] | TGI [10]
1 | COc1cc(CNCCCCCCN2C(=O)c3cccc4cccc(c34)C2=O)ccc1O | 5.59 µM | 19.9 µM | 5.56 µM | 19.4 µM | 6.08 µM | 18.9 µM | 3.33 µM | 24.3 µM | 6.14 µM | 19.2 µM | 14.1 µM | 29 µM | 4.73 µM | 21.3 µM | 2.36 µM | 7.8 µM | 4.1 µM | 17.2 µM | 2.15 µM | 4.49 µM
2 | CC(=O)Nc1ccc(C(=O)CCl)cc1 | 4.41 µM | 15.2 µM | 18.9 µM | 39.2 µM | 9.19 µM | 21.2 µM | 2.4 µM | 5.86 µM | 2.07 µM | 4.06 µM | 12.2 µM | 26.1 µM | 7.56 µM | 24.2 µM | 2.63 µM | 7.33 µM | 1.73 µM | 3.38 µM | 10.9 µM | 23.3 µM
3 | NS(=O)(=O)c1ccc(Nc2cc(-c3ccc(O)c(F)c3)[nH]n2)cc1 | > 25 µM | > 25 µM | > 25 µM | > 25 µM | > 25 µM | > 25 µM | > 25 µM | > 25 µM | 8.8 µM | > 25 µM | > 25 µM | > 25 µM | 17.8 µM | > 25 µM | 12.5 µM | > 25 µM | > 25 µM | > 25 µM | > 25 µM | > 25 µM
4 | COc1cccc2c1-c1nc(N)c3c(OC)cccc3c1C2=O | – | > 100 µM | – | > 100 µM | – | > 100 µM | – | 72.5 µM | – | > 100 µM | – | > 100 µM | – | > 100 µM | – | > 100 µM | – | > 100 µM | – | > 100 µM
5 | C/C(=N\O)c1ccc2ccc3ccccc3c2c1 | – | > 100 µM | – | 79.8 µM | – | > 100 µM | – | 66.6 µM | – | 66.5 µM | – | > 100 µM | – | 61.4 µM | – | 48.7 µM | – | > 100 µM | – | 53.4 µM
6 | O=C(Nc1ccc(Oc2ccc(F)cc2)cc1)[C@@H]1C[C@@H](Cc2ccc(F)cc2)CN1C(=O)Cn1ccnn1 | 10.5 µM | 34.2 µM | 5.21 µM | > 50.4 µM | 13.6 µM | > 85.7 µM | 3.7 µM | 17.8 µM | 6.29 µM | > 69.9 µM | 4.52 µM | 17.7 µM | 7.16 µM | 31.9 µM | 3.14 µM | 14.2 µM | 12.6 µM | 40 µM | 8.04 µM | 24.9 µM
7 | CN(C)c1ccc(/C=C\c2ccnc3ccccc23)cc1 | 6.03 µM | > 39.2 µM | 5.83 µM | > 100 µM | 12.1 µM | > 88.5 µM | > 20.2 µM | > 86.8 µM | 9.77 µM | > 100 µM | 12.7 µM | > 100 µM | 5.26 µM | > 100 µM | – | > 100 µM | 5.78 µM | > 96 µM | 8.39 µM | 79.4 µM
8 | c1cc(N[C@@H]2CCNC2)nc(-c2cnc3ccc(-c4cn[nH]c4)cn23)c1 | 10.6 µM | > 83.1 µM | 22.8 µM | > 100 µM | 9.09 µM | > 100 µM | 22.1 µM | 66.6 µM | 2.84 µM | 9.92 µM | 6.06 µM | > 95.4 µM | 6.47 µM | > 92.8 µM | 2.37 µM | 10.1 µM | 6.83 µM | 52.1 µM | 16.1 µM | 53.3 µM
9 | O=C1/C(=C/c2ccc(Cl)c(Cl)c2)CN(C(=O)C(Cl)Cl)C/C1=C\c1ccc(Cl)c(Cl)c1 | 0.151 µM | 0.306 µM | 0.22 µM | 0.908 µM | 0.369 µM | 1.41 µM | 0.198 µM | 1.05 µM | 0.0743 µM | 1.49 µM | 0.204 µM | 0.545 µM | 0.0505 µM | 1.51 µM | 0.0267 µM | > 100 µM | 0.0364 µM | 0.196 µM | 0.666 µM | 2.24 µM
10 | CC(C)=CCc1cc2c(cc1O)C1=C(C(=O)C3=C(C1=O)S(=O)(=O)CCN3)C(C=C(C)C)O2 (centres undefined) | 2.49 µM | 7.03 µM | 2.23 µM | 5.59 µM | 0.309 µM | 0.597 µM | 0.438 µM | 1.11 µM | 0.469 µM | 2.44 µM | 2.73 µM | 5.93 µM | 0.552 µM | 2.12 µM | 0.87 µM | 10.9 µM | 0.554 µM | 1.76 µM | 0.482 µM | 1.5 µM
11 | COC(=O)C(CO)NC(=O)C(CSC(c1ccccc1)(c1ccccc1)c1ccccc1)NC(=O)OCc1ccccc1 (centres undefined) (Cbz-Cys(Trt)-Ser-OMe; configuration not given here) | – | 46.9 µM | – | > 48.5 µM | – | 43.4 µM | – | > 43.6 µM | – | > 50.2 µM | – | 35.3 µM | – | 36.5 µM | – | 0.221 µM | – | 32.4 µM | – | 25.6 µM
12 | COc1cc(/C=C2\C(=O)N(Cc3ccc(Cl)cc3)c3ccccc32)cc(OC)c1OC | 3.37 µM | 14.9 µM | 4.27 µM | 19.2 µM | 2.05 µM | 5.04 µM | 1.94 µM | 5.44 µM | 4.35 µM | > 49.6 µM | 3.38 µM | 14.5 µM | 3.4 µM | > 45.2 µM | 1.51 µM | 4.19 µM | 1.78 µM | 3.53 µM | 6.04 µM | 26.6 µM
